Measurements as given in US20030232851A1, “Viral treatment” (The Procter & Gamble Company, priority 1999, published 2003).
Values after ≈ are worked out from the molar mass of the structure shown. Values joined by “and” are separate entries in the source; they are usually repeats but may differ in a detail not shown here. Equal entries are not always repeated. Where two headings read alike, the source gives them in different places.

Assays:
HIV-1 protease = target: T1, HIV-1 protease (Human immunodeficiency virus type 1 group M subtype B, UniProt P04585); test: Protease inhibition assay (fluorometric); type: biochemical; conditions: for Protease Inhibition, sample reading: sample 1, sample 2
T1 construct: precludes use of the fluorometric HIV-1 protease assay; purchased Bachem
Experimental: Protease inhibition is evaluated using a fluorometric method. Enzyme (Bachem) is diluted to 116 μgm/ml in 50 mM NaOAC, 5 mM DTT, 2 mM EDTA, 10% glycerol (pH 5.0) and stored as 10 μl samples at −20° C., HIV protease substrates I (Molecular Probes) is diluted to a working concentration of 0.32 nmoles/μl. Enzyme (20 μl) and drug (20 μl) are added to each well of a microtiter plate as appropriate. Positive and negative controls are evaluated in parallel. Fluorescence is quantitated on Labsystems Fluroskan II using 355 nm/460 nm at 37° C. at time zero and at 30 minute intervals for 2 hours. In instances where autofluorescence precludes use of the fluorometric HIV-1 protease assay or confirmation of a result is required, an HPLC based protease assay can be employed.

HIV-1 cell line, CEMSKI = test: Long term in vitro study, CEMSKI, reverse transcriptase; type: cell-based; conditions: run through 242 days
Experimental: A microtiter-based reveres transcriptase (RT) reaction is utilized (Buckheit et al (1991) AIDS Research and Human Retroviruses 7:295-302). Tritiated thymidine triphosphate (NEN)(TTP) is resuspended in distilled water at 5 Ci/ml. Poly rA and oligo dT are prepared as a stock solution which is kept at −20° C. The RT reaction buffer is prepared fresh on a daily basis and consists of 125 μl 1M EGTA, 125 μl water, 125 μl Triton X-100, 50 μl Tris (pH 7.4), 50 μl 1 MDDT, and 40 μl 1M MgCl2. These three solutions are mixed together in a ratio of 1 part TTP, 2.5 parts poly rA:oligo dT, 2.5 parts reaction buffer and 4 parts distilled water. Ten microliters of this reaction mixture is placed in a round bottom microtiter place and 15 μl of virus containing supernatant is added and mixed. The plate is incubated at 37° C. for 60 minutes. […] Incorporated radioactivity is quantified utilizing a Wallac Microbeta scintillation counter. […]
The cell populations contain integrated copies of the HIV genome and constitutively produce HIV at relatively high levels or are latently infected and only produce virus after stimulation with phorbol esters, tumor necrosis factor or IL6 (U1 and ACH2). Reductions in virus products were observed when quantifying supernatant reverse transcriptase activity, […]

HIV-1 cell line, CEMRF = type: cell-based; conditions: for reverse transcriptase data: 7 μg/ml
Experimental: A microtiter-based reveres transcriptase (RT) reaction is utilized (Buckheit et al (1991) AIDS Research and Human Retroviruses 7:295-302). Tritiated thymidine triphosphate (NEN)(TTP) is resuspended in distilled water at 5 Ci/ml. Poly rA and oligo dT are prepared as a stock solution which is kept at −20° C. The RT reaction buffer is prepared fresh on a daily basis and consists of 125 μl 1M EGTA, 125 μl water, 125 μl Triton X-100, 50 μl Tris (pH 7.4), 50 μl 1 MDDT, and 40 μl 1M MgCl2. These three solutions are mixed together in a ratio of 1 part TTP, 2.5 parts poly rA:oligo dT, 2.5 parts reaction buffer and 4 parts distilled water. Ten microliters of this reaction mixture is placed in a round bottom microtiter place and 15 μl of virus containing supernatant is added and mixed. The plate is incubated at 37° C. for 60 minutes. Following reaction, the reaction volume is spotted onto filter mats, washed 6 times for 5 minutes each in a 5% sodium phosphate buffer, 2 times for 1 minute each in distilled water, 2 times for 1 minute each in 70% ethanol, and then dried. The dried filter mat is placed in a plastic sample bag, Betaplate scintillation fluid is added and the bag is heat sealed. Incorporated radioactivity is quantified utilizing a Wallac Microbeta scintillation counter.
Acute infection of most established human cell lines with HIV-1 results in the eventual establishment of a constitutive virus-producing chronically infected cell line. The cells can be passaged for long periods of time in culture without loss of virus production. These cells may be utilized to evaluate the effects of anti-HIV compounds on syncytium formation or to evaluate the effects of anti-HIV compounds on levels of virus production from these cells. […] Each of the cells contains an integrated HIV genome or provirus. Chronically infected CEM, H9 and U937 cell lines have been prepared and cultured by Southern Research Institute, Frederick Md. and are available from them.
CEM-SS cells chronically infected with HIV isolate, for example SKI (CEM-SKI) are cultured in RPMI1640 tissue culture medium supplemented with 10% fetal bovine serum and antibiotics. Selection is performed by culturing the cells in the presence of the compound to be tested in T25 flasks. CEM-SKI or other infected cells with no added drug are used as the control cells. Cells are allowed to grow to a density of approximately 1×10^6 cells/ml and are then passaged at a 1:10 dilution. […] The drug concentration in the flask is then increased two-fold and the cells maintained as above.
The cell populations contain integrated copies of the HIV genome and constitutively produce HIV at relatively high levels or are latently infected and only produce virus after stimulation with phorbol esters, tumor necrosis factor or IL6 (U1 and ACH2).
A long term in vitro study of 2-(2-thienyl)-imidazolo [4,5-b]pyridine against an HIV-1 cell line, CEMRF, was conducted at three different levels. […] CEMRF is a chronic HIV cell line.

hepatitis B, HEPG22.2.15 = test: In vitro virus production test of hepatitis B, DNA copy number; type: cell-based
TPA-induced BCBL-1 cells = test: Kaposi's Sarcoma test: toxicity values; type: cell-based; design: Toxicity Values, samples 1-3 / Toxicity Values, average: scale not given here
Experimental: The DNA copy number and the toxicity value were measured and compared with Cidofovir.

c1csc(-c2nc3cccnc3[nH]2)c1 [2-(2-thienyl)-imidazolo [4,5-b]pyridine]
Protease Inhibition, mean (HIV-1 protease; 1 nM): 24.7 | Protease Inhibition, sample reading (HIV-1 protease; 1 nM): 27.1 and 22.4 | Protease Inhibition, mean (HIV-1 protease; 10 nM): 36.7 | Protease Inhibition, sample reading (HIV-1 protease; 10 nM): 33.2 and 40.2 | Protease Inhibition, mean (HIV-1 protease; 100 nM): 76.1 | Protease Inhibition, sample reading (HIV-1 protease; 100 nM): 75.4 and 76.8 | Protease Inhibition, mean (HIV-1 protease; 1000 nM): 213.8 | Protease Inhibition, sample reading (HIV-1 protease; 1000 nM): 219.4 and 208.2 | reverse transcriptase data on continuation (in words) (HIV-1 cell line, CEMSKI): data remained consistent | reverse transcriptase data (HIV-1 cell line, CEMRF; day 4): 6521 | reverse transcriptase data (HIV-1 cell line, CEMRF; day 67): 9241 | reverse transcriptase data (HIV-1 cell line, CEMRF; day 71): 8422 | reverse transcriptase data (HIV-1 cell line, CEMRF; day 74): 8643 | resistance developing (HIV-1 cell line, CEMRF; by day 186 at the 15 and 30 μg/ml level): no indication of resistance developing | reverse transcriptase data on continuation (in words) (HIV-1 cell line, CEMRF; run through 242 days): data remained consistent | DNA Copy Number, % virus control (hepatitis B, HEPG22.2.15; 0.64 μg/ml): 75.3% | DNA Copy Number, mean (hepatitis B, HEPG22.2.15; 0.64 μg/ml): 255.6 per 3 μl | DNA Copy Number, samples 1-3 (hepatitis B, HEPG22.2.15; 0.64 μg/ml): 249.2 per 3 μl and 255.9 per 3 μl and 261.6 per 3 μl | DNA Copy Number, % virus control (hepatitis B, HEPG22.2.15; 2 μg/ml): 39.8% | DNA Copy Number, mean (hepatitis B, HEPG22.2.15; 2 μg/ml): 134.8 per 3 μl | DNA Copy Number, samples 1-3 (hepatitis B, HEPG22.2.15; 2 μg/ml): 134.5 per 3 μl and 124.2 per 3 μl and 145.8 per 3 μl | DNA Copy Number, % virus control (hepatitis B, HEPG22.2.15; 6.4 μg/ml): 8.2% | DNA Copy Number, mean (hepatitis B, HEPG22.2.15; 6.4 μg/ml): 27.9 per 3 μl | DNA Copy Number, % virus control (hepatitis B, HEPG22.2.15; 20 μg/ml): 0.8% | DNA Copy Number, mean (hepatitis B, HEPG22.2.15; 20 μg/ml): 2.7 per 3 μl | DNA Copy Number, % virus control (hepatitis B, HEPG22.2.15; 64 μg/ml): 0.1% | DNA Copy Number, mean (hepatitis B, HEPG22.2.15; 64 μg/ml): 0.4 per 3 μl | DNA Copy Number, % virus control (hepatitis B, HEPG22.2.15; 200 μg/ml): 0% | DNA Copy Number, mean (hepatitis B, HEPG22.2.15; 200 μg/ml): 0.1 per 3 μl | IC50 (hepatitis B, HEPG22.2.15; HepG2 2.2.15, first experiment): 1.6 µg/mL (≈ 7.95 µM) | IC50 (hepatitis B, HEPG22.2.15; HepG2 2.2.15, replicate experiment): 10.7 µg/mL (≈ 53.2 µM) | Toxicity Values, % cell control (TPA-induced BCBL-1 cells; 0.64 μM): 110.5% | Toxicity Values, average (TPA-induced BCBL-1 cells; 0.64 μM): 1.160 | Toxicity Values, samples 1-3 (TPA-induced BCBL-1 cells; 0.64 μM): 1.034 and 1.201 and 1.245 | Toxicity Values, % cell control (TPA-induced BCBL-1 cells; 2 μM): 111.7% | Toxicity Values, average (TPA-induced BCBL-1 cells; 2 μM): 1.172 | Toxicity Values, samples 1-3 (TPA-induced BCBL-1 cells; 2 μM): 1.155 and 1.182 and 1.179 | Toxicity Values, % cell control (TPA-induced BCBL-1 cells; 6.4 μM): 111.5% | Toxicity Values, average (TPA-induced BCBL-1 cells; 6.4 μM): 1.170 | Toxicity Values, samples 1-3 (TPA-induced BCBL-1 cells; 6.4 μM): 1.198 and 1.119 and 1.193 | Toxicity Values, % cell control (TPA-induced BCBL-1 cells; 20 μM): 69.5% | Toxicity Values, average (TPA-induced BCBL-1 cells; 20 μM): 0.729 | Toxicity Values, samples 1-3 (TPA-induced BCBL-1 cells; 20 μM): 0.701 and 0.706 and 0.782 | Toxicity Values, % cell control (TPA-induced BCBL-1 cells; 64 μM): 1.5% | Toxicity Values, average (TPA-induced BCBL-1 cells; 64 μM): 0.016 | Toxicity Values, samples 1-3 (TPA-induced BCBL-1 cells; 64 μM): 0.020 and 0.016 and 0.013 | Toxicity Values, % cell control (TPA-induced BCBL-1 cells; 200 μM): 6.4% | Toxicity Values, average (TPA-induced BCBL-1 cells; 200 μM): 0.067 | Toxicity Values, samples 1-3 (TPA-induced BCBL-1 cells; 200 μM): 0.068 and 0.067
